Measured values reported in the NIST ThermoML archive (doi:10.1021/je8001464).

Test: mn = molality of the nth substance listed, in mol/kg
Conditions: 101 kPa, Liquid

NCC(=O)O [2-aminoacetic acid] + O
Conditions	mass density [kg/m3]
288.15 K, m1 = 0.07326	1001.51
288.15 K, m1 = 0.1458	1003.85
288.15 K, m1 = 0.2326	1006.63
288.15 K, m1 = 0.2824	1008.21
288.15 K, m1 = 0.3277	1009.64
288.15 K, m1 = 0.4371	1013.07
298.15 K, m1 = 0.1536	1001.88
298.15 K, m1 = 0.2528	1004.96
298.15 K, m1 = 0.302	1006.47
298.15 K, m1 = 0.3469	1007.84
298.15 K, m1 = 0.4593	1011.25
308.15 K, m1 = 0.07746	993.053
308.15 K, m1 = 0.2534	998.473
308.15 K, m1 = 0.3017	999.939
308.15 K, m1 = 0.3466	1001.29
308.15 K, m1 = 0.4586	1004.65
318.15 K, m1 = 0.1525	994.942
318.15 K, m1 = 0.2564	998.093
318.15 K, m1 = 0.3091	999.679
318.15 K, m1 = 0.3656	1001.36
318.15 K, m1 = 0.4809	1004.79

[Cl-].[Cl-].[Zn+2] [zinc chloride] + O
mass density [kg/m3]
Conditions	288.15 K	298.15 K	308.15 K	318.15 K
m1 = 0.1	1011.64	1009.38	1005.93	1002.03
m1 = 0.5	1058.86	1055.44	1047.95	1043.29
m1 = 1	1113.88	1106.55	1097.59	1090.83
m1 = 1.5	1160.53	1152.82	1142.54	1135.27
